Measurements: the supplement of paper PMC10627819

Legend:
S. aureus DSM 20231 [1] = experiment: fitness (endpoint OD595 vs no drug) (fraction); higher = more growth
Outline: (§1)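 Each well of a 384-well plate received 30 µl of culture at OD595 0.01, or 55 µl for S. pneumoniae. TSB, LB Lennox or CY served as media at 37 °C. OD595 was taken every 30 min for 14 h and corrected by subtracting the first reading. Fitness is the optical density at stationary-phase entry divided by the robust mean of no-drug controls, capped at 1.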

B. subtilis 168 [2] = experiment: as above
Outline: as §1

S. aureus DSM 20231 [3] = experiment: Bliss interaction score (quartile over a dose matrix) (fitness difference); higher = more antagonism (negative = synergy)
Outline: (§2)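 The Bliss score is observed minus expected fitness, where expected fitness is the product of the single-drug fitness values inferred from the combination data. Fitness is the OD595 at the onset of stationary phase over the plate's robust no-drug mean, capped at 1. Scores are summarised by quartiles over technical, biological and donor/recipient replicates.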

S. aureus Newman [4] = experiment: as above
Outline: as §2

B. subtilis 168 [5] = experiment: as above
Outline: as §2

S. pneumoniae D39V [6] = experiment: as above
Outline: as §2

S. aureus Newman [7] = experiment: fitness (endpoint OD595 vs no drug) (fraction); higher = more growth; conditions: main component drawn
Outline: as §1

S. pneumoniae D39V [8] = experiment: as above; conditions: main component drawn
Outline: as §1
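Throughout, for Bliss interaction score (quartile over a dose matrix): first quartile when negative (synergy) and third quartile when positive (antagonism).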

CC[C@H]1OC(=O)[C@H](C)[C@@H](O[C@H]2C[C@@](C)(OC)[C@@H](O)[C@H](C)O2)[C@H](C)[C@@H](O[C@@H]2O[C@H](C)C[C@H](N(C)C)[C@H]2O)[C@](C)(O)C[C@@H](C)CN(C)[C@H](C)[C@@H](O)[C@]1(C)O [Azithromycin] + CC(=O)NC[C@H]1CN(c2ccc(N3CCOCC3)c(F)c2)C(=O)O1 [Linezolid]
fitness
Conditions	first compound 0.125 µg/mL	first compound 0.25 µg/mL	first compound 0.5 µg/mL	first compound 1 µg/mL
B. subtilis 168 [2], partner 0.25 µg/mL	–	–	0.106	–
B. subtilis 168 [2], partner 0.5 µg/mL	–	0.0659	0.0597	0.0407
S. aureus DSM 20231 [1], partner 0.125 µg/mL	0.768	0.744	–	–
S. aureus DSM 20231 [1], partner 0.25 µg/mL	0.608	0.557	0.191	–
S. aureus DSM 20231 [1], partner 0.5 µg/mL	–	0.151	0.0625	–

one replicate
Conditions	fitness
B. subtilis 168 [2], first compound 0.5 µg/mL, partner 0.0625 µg/mL	0.759
B. subtilis 168 [2], first compound 1 µg/mL, partner 0.0625 µg/mL	0.287
B. subtilis 168 [2], first compound 2 µg/mL, partner 0.0625 µg/mL	0.023
B. subtilis 168 [2], first compound 2 µg/mL, partner 0.125 µg/mL	0
B. subtilis 168 [2], first compound 2 µg/mL, partner 0.25 µg/mL	0.029
S. aureus DSM 20231 [1], first compound 0.125 µg/mL, partner 1 µg/mL	0.0489
S. aureus DSM 20231 [1], first compound 0.25 µg/mL, partner 1 µg/mL	0.0402
S. aureus DSM 20231 [1], first compound 0.5 µg/mL, partner 1 µg/mL	0.0193

Conditions	Bliss interaction score
B. subtilis 168 [5]	-0.0849
S. aureus DSM 20231 [3]	-0.0673
S. aureus Newman [4]	-0.0582
S. pneumoniae D39V [6]	-0.0318

CC[C@H]1OC(=O)[C@H](C)[C@@H](O[C@H]2C[C@@](C)(OC)[C@@H](O)[C@H](C)O2)[C@H](C)[C@@H](O[C@@H]2O[C@H](C)C[C@H](N(C)C)[C@H]2O)[C@](C)(O)C[C@@H](C)CN(C)[C@H](C)[C@@H](O)[C@]1(C)O [Azithromycin] + CCC[C@@H]1C[C@@H](C(=O)N[C@@H]([C@H]2O[C@H](SC)[C@H](O)[C@@H](O)[C@H]2O)[C@@H](C)O)N(C)C1 [Lincomycin]
fitness
Conditions	partner 0.1 µg/mL	partner 0.2 µg/mL	partner 0.4 µg/mL	partner 0.8 µg/mL	partner 1.6 µg/mL
B. subtilis 168 [2], first compound 0.25 µg/mL	0.777	0.78	0.833	0.865	0.887
B. subtilis 168 [2], first compound 0.5 µg/mL	0.82	0.817	0.876	0.797	0.77
B. subtilis 168 [2], first compound 1 µg/mL	0.714	0.734	–	–	–
S. aureus DSM 20231 [1], first compound 0.125 µg/mL	0.873	0.754	–	–	–
S. aureus DSM 20231 [1], first compound 0.25 µg/mL	0.89	0.583	–	–	–
S. aureus DSM 20231 [1], first compound 0.5 µg/mL	0.386	0.147	0.106	–	–

B. subtilis 168 [2], first compound 2 µg/mL, one replicate
Conditions	fitness
partner 0.1 µg/mL	0.401
partner 0.2 µg/mL	0.24
partner 0.4 µg/mL	0.202

Conditions	Bliss interaction score
B. subtilis 168 [5]	0.098
S. aureus DSM 20231 [3]	-0.0854
S. aureus Newman [4]	-0.105
S. pneumoniae D39V [6]	0.0603

CC[C@H]1OC(=O)[C@H](C)[C@@H](O[C@H]2C[C@@](C)(OC)[C@@H](O)[C@H](C)O2)[C@H](C)[C@@H](O[C@@H]2O[C@H](C)C[C@H](N(C)C)[C@H]2O)[C@](C)(O)C[C@@H](C)CN(C)[C@H](C)[C@@H](O)[C@]1(C)O [Azithromycin] + COc1cc(Cc2cnc(N)nc2N)cc(OC)c1OC [Trimethoprim]
fitness
Conditions	partner 0.125 µg/mL	partner 0.25 µg/mL	partner 0.5 µg/mL	partner 1 µg/mL
B. subtilis 168 [2], first compound 0.25 µg/mL	0.669	0.541	0.452	–
B. subtilis 168 [2], first compound 0.5 µg/mL	0.471	–	–	–
B. subtilis 168 [2], first compound 2 µg/mL	–	0.0144	0.0327	–
S. aureus DSM 20231 [1], first compound 0.125 µg/mL	0.789	0.64	0.538	0.0427
S. aureus DSM 20231 [1], first compound 0.25 µg/mL	0.782	0.658	0.562	0.03
S. aureus DSM 20231 [1], first compound 0.5 µg/mL	0.38	–	0.292	0.0131

fitness, B. subtilis 168 [2], one replicate
Conditions	partner 0.1 µg/mL	partner 0.125 µg/mL	partner 0.2 µg/mL	partner 0.4 µg/mL	partner 1 µg/mL	partner 2 µg/mL
first compound 0.25 µg/mL	–	–	–	–	0.106	0.0698
first compound 0.5 µg/mL	0.365	–	0.257	0.111	0.051	0.0526
first compound 1 µg/mL	0.144	–	0.0549	0.0194	0.0321	0.0311
first compound 2 µg/mL	0.0143	0.0446	0.0451	0.0182	–	–

Conditions	Bliss interaction score
B. subtilis 168 [5]	-0.194
S. aureus DSM 20231 [3]	0.171
S. aureus Newman [4]	0.175
S. pneumoniae D39V [6]	-0.0811

CNC(C)C1CCC(N)C(OC2C(N)CC(N)C(OC3OCC(C)(O)C(NC)C3O)C2O)O1 (stereo not given) [Gentamicin] + C[n+]1ccc(-c2cc[n+](C)cc2)cc1 [Paraquat]
fitness
Conditions	partner 1.25 µg/mL	partner 2.5 µg/mL	partner 5 µg/mL
B. subtilis 168 [2], first compound 0.0625 µg/mL, main component drawn	0.865	0.864	–
B. subtilis 168 [2], first compound 0.25 µg/mL, main component drawn	0.203	0.0485	0.0561
S. aureus Newman [7], first compound 0.375 µg/mL, one replicate	0.919	0.951	0.952
S. aureus Newman [7], first compound 0.75 µg/mL, one replicate	0.918	0.937	0.9
S. aureus Newman [7], first compound 1.5 µg/mL, one replicate	0.949	0.98	0.976

fitness
Conditions	first compound 0.5 µg/mL	first compound 1 µg/mL	first compound 2 µg/mL	first compound 4 µg/mL	first compound 8 µg/mL
S. aureus Newman [7], partner 1.25 µg/mL	0.957	0.981	≥ 1	–	–
S. aureus Newman [7], partner 2.5 µg/mL	0.953	≥ 1	≥ 1	–	–
S. aureus Newman [7], partner 5 µg/mL	0.928	0.992	0.963	–	–
S. pneumoniae D39V [8], partner 1.5 µg/mL	–	–	0.982	≥ 1	0.993
S. pneumoniae D39V [8], partner 3 µg/mL	–	–	0.99	0.971	0.902
S. pneumoniae D39V [8], partner 6 µg/mL	–	–	0.931	0.932	0.935

main component drawn
Conditions	Bliss interaction score
B. subtilis 168 [5]	-0.0978
S. aureus DSM 20231 [3]	0.109
S. aureus Newman [4]	0.0489
S. pneumoniae D39V [6]	0.0553

CNC(C)C1CCC(N)C(OC2C(N)CC(N)C(OC3OCC(C)(O)C(NC)C3O)C2O)O1 (stereo not given) [Gentamicin] + Cc1cc(NS(=O)(=O)c2ccc(N)cc2)no1 [Sulfamethoxazol]
fitness
Conditions	partner 1 µg/mL	partner 2 µg/mL	partner 4 µg/mL	partner 8 µg/mL
B. subtilis 168 [2], first compound 0.0625 µg/mL, main component drawn	0.904	0.902	0.906	–
B. subtilis 168 [2], first compound 0.25 µg/mL, main component drawn	–	–	0.0278	–
S. aureus Newman [7], first compound 0.375 µg/mL, one replicate	≥ 1	0.979	≥ 1	–
S. aureus Newman [7], first compound 0.75 µg/mL, one replicate	0.974	0.926	≥ 1	–
S. aureus Newman [7], first compound 1 µg/mL, one replicate	–	–	–	≥ 1
S. aureus Newman [7], first compound 1.5 µg/mL, one replicate	≥ 1	0.975	0.981	–
S. aureus Newman [7], first compound 2 µg/mL, one replicate	–	–	–	0.975
S. aureus Newman [7], first compound 4 µg/mL, one replicate	–	0.899	0.691	0.852

fitness
Conditions	first compound 0.5 µg/mL	first compound 1 µg/mL	first compound 2 µg/mL	first compound 4 µg/mL	first compound 8 µg/mL
S. aureus Newman [7], partner 1 µg/mL	0.948	≥ 1	0.98	–	–
S. aureus Newman [7], partner 2 µg/mL	0.936	≥ 1	0.986	–	–
S. aureus Newman [7], partner 4 µg/mL	0.981	0.999	1	–	–
S. pneumoniae D39V [8], partner 1 µg/mL	–	–	0.942	0.973	0.978
S. pneumoniae D39V [8], partner 2 µg/mL	–	–	0.942	0.977	0.968
S. pneumoniae D39V [8], partner 4 µg/mL	–	–	0.962	0.967	0.951

B. subtilis 168 [2], partner 0.5 µg/mL, one replicate, main component drawn
Conditions	fitness
first compound 0.0625 µg/mL	0.848
first compound 0.125 µg/mL	0.975
first compound 0.25 µg/mL	0.864

main component drawn
Conditions	Bliss interaction score
B. subtilis 168 [5]	0.128
S. aureus DSM 20231 [3]	0.0736
S. aureus Newman [4]	-0.0274
S. pneumoniae D39V [6]	0.0873
